In ChEMBL document CHEMBL3046361, “Coumarin: a potential nucleus for anti-inflammatory molecules” (Med Chem Res, 2013):

Legend:
[1] = target: T1, Seed linoleate 13S-lipoxygenase-1 (Glycine max) (UniProt P08170); test: Inhibition of Glycine max (soybean) lipooxygenase
T1 sequence (whole entry): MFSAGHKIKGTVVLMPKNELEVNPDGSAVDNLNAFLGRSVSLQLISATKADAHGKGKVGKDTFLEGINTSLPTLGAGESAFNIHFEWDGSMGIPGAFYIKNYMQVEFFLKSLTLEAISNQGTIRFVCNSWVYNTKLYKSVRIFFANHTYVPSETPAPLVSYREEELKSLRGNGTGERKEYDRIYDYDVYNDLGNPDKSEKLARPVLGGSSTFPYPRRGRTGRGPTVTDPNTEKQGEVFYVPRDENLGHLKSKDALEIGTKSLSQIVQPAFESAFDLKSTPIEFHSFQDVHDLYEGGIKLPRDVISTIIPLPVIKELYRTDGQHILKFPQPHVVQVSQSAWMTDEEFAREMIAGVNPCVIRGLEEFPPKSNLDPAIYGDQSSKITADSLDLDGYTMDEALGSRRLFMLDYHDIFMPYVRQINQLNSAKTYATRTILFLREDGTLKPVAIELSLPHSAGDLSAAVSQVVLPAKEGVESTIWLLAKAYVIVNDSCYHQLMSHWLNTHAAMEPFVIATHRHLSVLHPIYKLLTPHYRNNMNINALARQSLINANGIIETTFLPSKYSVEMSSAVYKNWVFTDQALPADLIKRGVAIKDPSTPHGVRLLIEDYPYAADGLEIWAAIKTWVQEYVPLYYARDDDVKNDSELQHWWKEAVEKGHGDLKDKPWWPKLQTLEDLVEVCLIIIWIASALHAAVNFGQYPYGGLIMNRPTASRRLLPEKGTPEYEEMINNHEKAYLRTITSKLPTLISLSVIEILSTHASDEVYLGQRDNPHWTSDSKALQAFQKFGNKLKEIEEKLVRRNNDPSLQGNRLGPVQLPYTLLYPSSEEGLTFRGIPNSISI

Rattus norvegicus [2] = test: Anti-inflammatory activity in Rattus norvegicus (rat) assessed as inhibition of carrageenan-induced paw edema relative to control; assay type: functional
Rattus norvegicus [3] = test: Anti-inflammatory activity in albino Rattus norvegicus (rat) assessed as inhibition of carrageenan-induced paw edema at 10 mg/kg, po administered 1 hr prior to carrageenan-challenge measured after 3 hr relative to control; assay type: functional
Rattus norvegicus [4] = test: Anti-inflammatory activity in Rattus norvegicus (rat) assessed as inhibition of carrageenan-induced paw edema at 100 mg/kg, po relative to control; assay type: functional
[5] = target: Prostaglandin G/H synthase 1 (Homo sapiens) (UniProt P23219); test: Inhibition of COX1 (unknown origin); details: concentration not given here
Chain of Prostaglandin G/H synthase 1 (Homo sapiens) (P23219 whole entry): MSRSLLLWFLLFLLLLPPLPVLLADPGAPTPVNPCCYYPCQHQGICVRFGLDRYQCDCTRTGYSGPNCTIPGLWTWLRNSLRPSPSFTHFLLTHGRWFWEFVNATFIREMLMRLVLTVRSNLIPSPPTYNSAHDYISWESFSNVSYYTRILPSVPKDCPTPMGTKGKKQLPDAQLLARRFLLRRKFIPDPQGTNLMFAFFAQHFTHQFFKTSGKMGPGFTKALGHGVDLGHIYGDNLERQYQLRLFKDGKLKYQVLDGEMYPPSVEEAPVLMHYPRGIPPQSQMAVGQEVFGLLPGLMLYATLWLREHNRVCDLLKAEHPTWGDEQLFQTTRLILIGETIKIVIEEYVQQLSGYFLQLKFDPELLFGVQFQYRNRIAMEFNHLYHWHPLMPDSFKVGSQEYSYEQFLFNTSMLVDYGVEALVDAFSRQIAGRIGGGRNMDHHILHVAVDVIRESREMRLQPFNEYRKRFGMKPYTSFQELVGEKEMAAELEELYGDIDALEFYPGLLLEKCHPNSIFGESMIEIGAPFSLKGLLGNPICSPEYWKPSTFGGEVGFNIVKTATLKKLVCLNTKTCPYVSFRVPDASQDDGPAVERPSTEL

Rattus norvegicus [6] = test: Anti-inflammatory activity in Rattus norvegicus (rat) assessed as inhibition of carrageenan-induced paw edema at […] relative to control; assay type: functional
Rattus norvegicus [7] = test: Anti-inflammatory activity in albino Rattus norvegicus (rat) assessed as inhibition of carrageenan-induced paw edema at 100 mg/kg, po administered 30 min prior to carrageenan-challenge measured after 5 hr relative to control; assay type: functional
PBMC = test: Anti-inflammatory activity in Homo sapiens (human) PBMC assessed as inhibition of LPS-induced TNFalpha production; assay type: functional, cell-based
Rattus norvegicus [8] = test: Anti-inflammatory activity in Rattus norvegicus (rat) assessed as inhibition of carrageenan-induced paw edema at 0.1 mmoles/kg relative to control; assay type: functional; details: read-out: INH
Rattus norvegicus [9] = test: Anti-inflammatory activity in albino Rattus norvegicus (rat) assessed as inhibition of carrageenan-induced paw edema at 10 mg/kg, po administered 30 min prior to carrageenan-challenge measured after 5 hr relative to control; assay type: functional

## CC1=NC(c2cc(=O)oc3ccccc23)NO1 (stereo unspecified)
[1]
  inhibition: 77%

## O=C(O)c1ccccc1NC(=O)c1cc2cc(Cl)ccc2oc1=O
Rattus norvegicus [2]
  inhibition (INH): 54%

## COc1ccc2c(C3=NOSN3c3ccccc3)cc(=O)oc2c1
Rattus norvegicus [3]
  inhibition in vivo at 10 mg/kg: 55.3%

## CO/N=C/c1ccc2ccc(=O)oc2c1
Rattus norvegicus [2]
  inhibition (INH): 54%

## N/C(=N/C(=O)Oc1ccccc1)c1cc(=O)oc2ccccc12
Rattus norvegicus [2]
  inhibition (INH): >80%

## O=c1oc2ccccc2cc1/N=C/c1ccc(Cl)cc1
Rattus norvegicus [4]
  inhibition in vivo at 100 mg/kg: 75%

## Cc1c/c(=N\c2ccc([N+](=O)[O-])cc2)oc2cc(O)ccc12
[5]
  inhibition: 39%

## COc1ccc(-c2cc(-c3c(OC)ccc4c(C)cc(=O)oc34)no2)cc1
Rattus norvegicus [6]
  inhibition (INH): 72%

## Cc1cc(=O)oc2cc(NCCN(CCN)CCN)ccc12
[1]
  inhibition: 92.4%

## CC(=O)N1N=C(c2cc3cc(Br)ccc3oc2=O)CC1c1ccc([N+](=O)[O-])cc1 (stereo unspecified)
Rattus norvegicus [7]
  inhibition in vivo at 100 mg/kg: 66.5%

## CCNC(=O)Nc1ccc(-c2cc3ccc(OC(=O)N(CC)CC)cc3oc2=O)cc1
PBMC
  IC50: 320 nM

## CCOC(=O)c1cc(=O)oc2c3c(c4ccccc4c12)OC(C)(C)[C@@H](O)[C@H]3OC(=O)c1cccc(Cl)c1
Rattus norvegicus [8]
  inhibition in vivo at 100 µmol/kg: 59%
[1]
  inhibition: 100%

## O=c1oc2ccccc2cc1/N=C/c1ccc(Cl)c(Cl)c1
Rattus norvegicus [4]
  inhibition in vivo at 100 mg/kg: 60%

## COc1ccc2c(C)cc(=O)oc2c1-c1cc(-c2ccc(Cl)cc2)on1
Rattus norvegicus [6]
  inhibition (INH): 68%

## COC(=O)/N=C(/N)c1cc(=O)oc2ccccc12
[1]
  inhibition: 76%

## O=c1ccc2ccc(/C=N/O)cc2o1
[5]
  inhibition: 78.6%

## CN(C)N/C(=N/O)c1cc(=O)oc2ccccc12
Rattus norvegicus [2]
  inhibition (INH): >80%

## CN/N=C/c1ccc2ccc(=O)oc2c1
Rattus norvegicus [2]
  inhibition (INH): 54%

## CN(C)C(=O)Oc1cc2oc(=O)c(-c3cccnc3)cc2cc1Cl
PBMC
  IC50: 450 nM

## CCN(CC)C(=O)Oc1ccc2c(C)c(Cc3ccc(F)cc3)c(=O)oc2c1
PBMC
  IC50: 2400 nM

## CCOC(=O)c1cc(=O)oc2c3c(c4ccccc4c12)OC(C)(C)[C@@H](O)[C@H]3O
Rattus norvegicus [8]
  inhibition in vivo at 100 µmol/kg: 59%
[1]
  inhibition: 100%

## CCCC(=O)N/N=C/c1coc2ccccc2c1=O
Rattus norvegicus [2]
  inhibition (INH): 80.78%

## COc1ccc2c(c1)c(CC(=O)O)c(C)n2C(=O)c1ccc(Cl)cc1 [INDOMETHACIN]
Rattus norvegicus [9]
  inhibition in vivo at 10 mg/kg: 71%
Rattus norvegicus [3]
  inhibition in vivo at 10 mg/kg: 56.5%
